# According to paper PMC6109062, “The dual methyltransferase METTL13 targets N terminus and Lys55 of eEF1A and modulates codon-specific translation rates” (Nature Communications, 2018):
# Molecular target: T1, MT13-N (N-terminal methyltransferase domain of METTL13) (Homo sapiens, UniProt Q8N6R0)
# T1 construct: N-terminal methyltransferase domain, His6-tagged, E. coli
# T1 sequence (Q8N6R0 1-245 limits assumed): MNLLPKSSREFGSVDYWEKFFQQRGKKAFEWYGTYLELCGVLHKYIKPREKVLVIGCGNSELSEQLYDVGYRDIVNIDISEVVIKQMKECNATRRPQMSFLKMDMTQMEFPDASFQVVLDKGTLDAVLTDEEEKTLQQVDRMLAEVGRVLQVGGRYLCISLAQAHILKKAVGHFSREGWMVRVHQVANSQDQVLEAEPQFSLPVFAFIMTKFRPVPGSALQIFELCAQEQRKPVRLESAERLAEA
# Assay: [3H]AdoMet methyl transfer to eEF1A1, fluorography; MS
# Assay type: biochemical
# Settings: co-substrate eEF1A1 (Lys55), no nucleotide added; pH 7.4, 1 mM MgCl2, 30 °C; labelled compound
smiles,measurement,value
C[S+](CC[C@H](N)C(=O)O)C[C@H]1O[C@@H](n2cnc3c(N)ncnc32)[C@H](O)[C@@H]1O (stereo partly shown) [AdoMet],"[3H]AdoMet methyl transfer to eEF1A1, fluorography; MS",Recombinant eEF1A was incubated with MT13-N in the presence of AdoMet
